# Columns and labels:
# [1] = HLM stability (Low Activity); type: in vitro ADME; settings: both sexes, human, liver microsomes, pH 7.4, Condition 1 (Low Activity), 0.42 mg protein/mL
# Protocol: For some of the compounds, stability was tested under two microsomal incubation conditions, one with normal enzymatic activity (low activity) and one with higher enzymatic loading, longer incubation time, and lower compound concentration (high activity) intended to increase metabolic lability.
# (§1) HLM Stability (Low Activity). Pooled HLM from adult male and female donors (XenoTech H0630) were used. Microsomal incubations were carried out in 96-well plates in 5 aliquots of 40 μL, each (one for each time point). Liver microsomal incubation medium consisted of PBS (100 mM, pH 7.4), MgCl2 (3.3 mM), NADPH (3 mM), glucose-6-phosphate (5.3 mM), and glucose-6-phosphate dehydrogenase (0.67 units/mL), with 0.42 mg of liver microsomal protein per mL. Control incubations were performed by replacing the NADPH-cofactor system with PBS. Test compounds (2 μM, final solvent concentration 1.6%) were incubated with microsomes at 37° C., shaking at 100 rpm. Incubations were performed in duplicate. Five time points over 40 minutes were analyzed. The reactions were stopped by adding 12 volumes of 90% acetonitrile-water to incubation aliquots, followed by protein sedimentation by centrifugation at 5500 rpm for 3 minutes. Supernatants were analyzed for parent compound remaining using a fit-for-purpose liquid chromatography-tandem mass spectrometry (LC-MS/MS) method, with authentic samples of each analyte used for identity confirmation.
# (§2) Data Analysis. The elimination constant (kel), half-life (t1/2) and intrinsic clearance (Clint) were determined in a plot of […] versus time, using linear regression analysis.
# [2] = HLM stability (High Activity); type: in vitro ADME; settings: both sexes, human, liver microsomes, pH 7.4, Condition 2 (High Activity), 1.0 mg protein/mL
# Protocol: as §1, with “Stability (High” for “Stability (Low”, “with 1.0” for “with 0.42”, “compounds (1” for “compounds (2”, “over 60” for “over 40”
# as §2
# [3] = target: MK-801 binding site of the N-methyl-D-aspartate receptor (NMDAR); assay: NMDAR radioligand binding with [3H]MK-801, Method A; parameters: species or system Wistar rat; settings: MK-801 site, Method A, Wistar rat brain (minus cerebellum), 5.0 nM [3H]MK-801; read-out: NMDAR Ki ± SEM
# Protocol: Radioligand Binding—Method A. Affinity of the test compounds for NMDAR was determined in radioligand binding experiments with [^3H]MK-801 by Eurofins Panlabs, Inc., using methods adapted from the literature (Javitt et al. 1987; Reynolds et al. 1989) and under the conditions described in Table 12.
# [4] = MLM stability (High Activity); type: in vitro ADME, BALB/c mice; settings: male, BALB/c, mouse, liver microsomes, pH 7.4, Condition 2 (High Activity), 1.0 mg protein/mL
# Protocol: (§3) MLM Stability (High Activity). Pooled MLM from male BALB/c mice (XenoTech M3000) were used. Microsomal incubations were carried out in 96-well plates in 5 aliquots of 40 μL each (one for each time point). Liver microsomal incubation medium consisted of PBS (100 mM, pH 7.4), MgCl2 (3.3 mM), NADPH (3 mM), glucose-6-phosphate (5.3 mM), and glucose-6-phosphate dehydrogenase (0.67 units/mL), with 1.0 mg of liver microsomal protein per mL. Control incubations were performed by replacing the NADPH-cofactor system with PBS. Test compounds (1 μM, final solvent concentration 1.6%) were incubated with microsomes at 37° C., shaking at 100 rpm. Incubations were performed in duplicate. Five time points over 60 minutes were analyzed. The reactions were stopped by adding 9 volumes of 90% acetonitrile-water to incubation aliquots, followed by protein sedimentation by centrifugation at 5500 rpm for 3 minutes. Supernatants were analyzed for parent compound remaining using a fit-for-purpose liquid chromatography-tandem mass spectrometry (LC-MS/MS) method, with authentic samples of each analyte used for identity confirmation.
# as §2
# [5] = RLM stability (High Activity); type: in vitro ADME, Sprague Dawley rats; settings: male, Sprague Dawley, rat, liver microsomes, pH 7.4, Condition 2 (High Activity), 1 μM, 1.0 mg protein/mL
# Protocol: as §3, with “RLM” for “MLM”, “Sprague Dawley rats” for “BALB/c mice”, “R1000, lot #1910100)” for “M3000)”
# as §2
# [6] = target: MK-801 binding site of the N-methyl-D-aspartate receptor (NMDAR); assay: NMDAR radioligand binding with [3H]MK-801, Method B; parameters: species or system Sprague Dawley rat; settings: MK-801 site, Method B, male Sprague Dawley rat cortex, 5.0 nM [3H]MK-801; read-out: NMDAR Ki ± SEM
# Protocol: Radioligand Binding—Method B. Affinity of the test compounds for NMDAR was determined in radioligand binding experiments with [^3H]MK-801 by WuXi AppTec (Hong Kong) Limited, under the conditions described in Table 13.
# [7] = target: T1, serotonin transporter (SERT) (Homo sapiens, UniProt P31645); assay: Fluorescent substrate uptake inhibition, SERT; type: cell-based; settings: 10 μM, HEK293 cells expressing SERT
# T1 construct: expressed in transfected cells; host or cells: HEK293
# T1 sequence (P31645 whole entry, species assumed): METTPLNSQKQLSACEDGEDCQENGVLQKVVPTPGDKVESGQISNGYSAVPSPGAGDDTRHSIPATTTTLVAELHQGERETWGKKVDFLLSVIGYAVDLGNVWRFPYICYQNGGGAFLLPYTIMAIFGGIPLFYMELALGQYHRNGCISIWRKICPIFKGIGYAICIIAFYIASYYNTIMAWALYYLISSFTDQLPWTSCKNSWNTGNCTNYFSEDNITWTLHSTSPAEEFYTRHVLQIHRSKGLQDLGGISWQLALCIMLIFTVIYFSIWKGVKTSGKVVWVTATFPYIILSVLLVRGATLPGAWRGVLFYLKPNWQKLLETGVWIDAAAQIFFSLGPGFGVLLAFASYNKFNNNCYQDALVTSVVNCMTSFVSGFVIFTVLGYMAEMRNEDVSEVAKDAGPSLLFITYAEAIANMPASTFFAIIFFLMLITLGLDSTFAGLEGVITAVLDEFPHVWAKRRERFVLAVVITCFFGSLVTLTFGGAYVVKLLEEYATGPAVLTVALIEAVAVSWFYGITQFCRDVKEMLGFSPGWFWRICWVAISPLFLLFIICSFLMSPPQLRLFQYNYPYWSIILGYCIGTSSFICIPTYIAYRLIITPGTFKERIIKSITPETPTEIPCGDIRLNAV
# Protocol: (§4) Uptake Inhibition. The ability of test compounds to block monoamine uptake by SERT, NET, DAT, and VMAT2 was determined using the Neurotransmitter Transporter Uptake Assay Kit manufactured by Molecular Devices (Cat #R8173). Briefly, stably transfected cells expressing the MAT of interest (HEK293 cells for SERT and NET; CHO cells for DAT) were grown and plated into 384-well plates at a concentration of 20,000 cells per well. Plates were then incubated for 16-20 h at 37° C. and 5% CO2. The medium was then aspirated and replaced with 25 μL of assay buffer (20 mM HEPES in HBSS, containing 0.1% BSA) containing the test compounds at the appropriate concentrations. Plates were then centrifuged at 300 rpm for 15 s and then incubated at 37° C. for 30 minutes. At this time, 25 μL of the proprietary fluorescent dye solution was added, the plates were incubated at 37° C. for 60 minutes, and then fluorescence was quantified on a plate reader (excitation wavelength=440 nm, emission wavelength=520 nm). The proprietary dye solution contains a mixture of 1) a fluorescent dye that mimics the endogenous substrates of MATs and is thereby actively transported to the intracellular compartment in the absence of an inhibitor and 2) a masking dye that inhibits the fluorescence of dye 1 in the extracellular compartment. Therefore, the overall fluorescence of the system increases as the fluorescent dye is transported into the cells.
# [8] = target: T2, norepinephrine transporter (NET) (Homo sapiens, UniProt P23975); assay: Fluorescent substrate uptake inhibition, NET; type: cell-based; settings: 10 μM, HEK293 cells expressing NET
# T2 construct: expressed in transfected cells; host or cells: HEK293
# T2 sequence (P23975 whole entry, species assumed): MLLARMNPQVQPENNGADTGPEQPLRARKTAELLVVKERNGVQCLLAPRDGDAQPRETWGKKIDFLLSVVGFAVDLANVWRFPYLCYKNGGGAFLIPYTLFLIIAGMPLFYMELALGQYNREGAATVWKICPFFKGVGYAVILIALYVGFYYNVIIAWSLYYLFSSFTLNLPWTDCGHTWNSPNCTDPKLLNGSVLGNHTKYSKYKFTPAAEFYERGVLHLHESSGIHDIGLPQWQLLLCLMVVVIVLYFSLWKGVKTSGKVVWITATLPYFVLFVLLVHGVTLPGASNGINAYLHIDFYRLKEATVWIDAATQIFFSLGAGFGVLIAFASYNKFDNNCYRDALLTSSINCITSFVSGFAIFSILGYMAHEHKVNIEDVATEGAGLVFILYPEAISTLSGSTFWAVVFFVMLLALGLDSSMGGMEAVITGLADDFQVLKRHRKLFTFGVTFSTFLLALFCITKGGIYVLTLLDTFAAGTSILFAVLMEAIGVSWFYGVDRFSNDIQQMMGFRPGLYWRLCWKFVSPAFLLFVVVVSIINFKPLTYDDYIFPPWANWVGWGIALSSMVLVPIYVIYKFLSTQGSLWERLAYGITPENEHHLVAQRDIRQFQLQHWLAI
# Protocol: as §4
# [9] = target: T3, dopamine transporter (DAT) (Homo sapiens, UniProt Q01959); assay: Fluorescent substrate uptake inhibition, DAT; type: cell-based; settings: 10 μM, CHO cells expressing DAT
# T3 construct: expressed in transfected cells; host or cells: CHO (uptake)
# T3 sequence (Q01959 whole entry, species assumed): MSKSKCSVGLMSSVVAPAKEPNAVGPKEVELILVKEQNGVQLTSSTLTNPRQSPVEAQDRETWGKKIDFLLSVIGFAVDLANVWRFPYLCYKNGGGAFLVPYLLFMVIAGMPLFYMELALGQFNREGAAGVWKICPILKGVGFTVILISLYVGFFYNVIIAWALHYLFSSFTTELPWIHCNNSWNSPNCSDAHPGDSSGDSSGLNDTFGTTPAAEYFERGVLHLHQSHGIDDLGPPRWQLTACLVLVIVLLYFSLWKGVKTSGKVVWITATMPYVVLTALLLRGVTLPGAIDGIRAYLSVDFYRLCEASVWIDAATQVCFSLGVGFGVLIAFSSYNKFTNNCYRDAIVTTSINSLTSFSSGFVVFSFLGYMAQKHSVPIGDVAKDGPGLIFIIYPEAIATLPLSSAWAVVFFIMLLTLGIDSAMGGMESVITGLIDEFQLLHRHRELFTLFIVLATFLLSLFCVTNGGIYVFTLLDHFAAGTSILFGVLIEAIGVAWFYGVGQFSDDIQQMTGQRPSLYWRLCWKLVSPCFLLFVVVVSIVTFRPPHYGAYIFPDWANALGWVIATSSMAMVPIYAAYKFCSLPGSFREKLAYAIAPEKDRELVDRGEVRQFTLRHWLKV
# Protocol: as §4
# [10] = target: T4, vesicular monoamine transporter 2 (VMAT2) (Homo sapiens, UniProt Q05940); assay: Fluorescent substrate uptake inhibition, VMAT2; type: cell-based; settings: 10 μM, transfected cells
# T4 construct: expressed in transfected cells
# T4 sequence (Q05940 whole entry, species assumed): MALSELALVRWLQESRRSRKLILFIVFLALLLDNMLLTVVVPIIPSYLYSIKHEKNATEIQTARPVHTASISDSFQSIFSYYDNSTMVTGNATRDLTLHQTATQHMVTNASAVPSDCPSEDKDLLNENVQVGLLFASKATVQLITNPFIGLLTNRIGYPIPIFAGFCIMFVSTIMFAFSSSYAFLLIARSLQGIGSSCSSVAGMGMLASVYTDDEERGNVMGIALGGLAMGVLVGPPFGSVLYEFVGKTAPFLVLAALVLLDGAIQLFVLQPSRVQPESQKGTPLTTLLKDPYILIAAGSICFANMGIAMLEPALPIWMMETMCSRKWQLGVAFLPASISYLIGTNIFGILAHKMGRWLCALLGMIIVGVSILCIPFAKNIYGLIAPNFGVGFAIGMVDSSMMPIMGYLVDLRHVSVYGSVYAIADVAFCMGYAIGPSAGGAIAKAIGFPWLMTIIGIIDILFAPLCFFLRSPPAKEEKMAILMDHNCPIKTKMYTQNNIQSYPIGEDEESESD
# Protocol: as §4
# [11] = HLM stability (Low Activity, Alternative Method); type: in vitro ADME; settings: both sexes, human, liver microsomes, pH 7.4, Condition 1 column, values marked *: Low Activity, 0.50 mg protein/mL
# Protocol: (§5) HLM Stability (Low Activity, Alternative Method). Pooled HLM from adult male and female donors (Corning 452117) were used. Microsomal incubations were carried out in multi-well plates. Liver microsomal incubation medium consisted of PBS (100 mM, pH 7.4), MgCl2 (1 mM), and NADPH (1 mM), with 0.50 mg of liver microsomal protein per mL. Control incubations were performed by replacing the NADPH-cofactor system with PBS. Test compounds (1 μM, final solvent concentration 1.0%) were incubated with microsomes at 37° C. with constant shaking. Six time points over 60 minutes were analyzed, with 60 μL aliquots of the reaction mixture being drawn at each time point. The reaction aliquots were stopped by adding 180 μL of cold (4° C.) acetonitrile containing 200 ng/mL tolbutamide and 200 ng/mL labetalol as internal standards (IS), followed by shaking for 10 minutes, and then protein sedimentation by centrifugation at 4000 rpm for 20 minutes at 4° C. Supernatant samples (80 μL) were diluted with water (240 μL) and analyzed for parent compound remaining using a fit-for-purpose liquid chromatography-tandem mass spectrometry (LC-MS/MS) method.
# as §2
# [12] = MLM stability (Low Activity); type: in vitro ADME, CD-1 mice; settings: male, CD-1, mouse, liver microsomes, pH 7.4, Condition 1 (Low Activity), 0.50 mg protein/mL
# Protocol: as §5, with “MLM” for “HLM”, “Activity).” for “Activity, Alternative Method).”, “from” for “from adult”, “CD-1 mice (XenoTech M1000)” for “and female donors (Corning 452117)”
# as §2
# [13] = RLM stability (Low Activity); type: in vitro ADME, Sprague Dawley rats; settings: male, Sprague Dawley, rat, liver microsomes, pH 7.4, Condition 1 (Low Activity), 0.50 mg protein/mL
# Protocol: as §5, with “RLM” for “HLM”, “Activity).” for “Activity, Alternative Method).”, “from” for “from adult”, “Sprague Dawley rats (XenoTech R1000)” for “and female donors (Corning 452117)”
# as §2
SMILES,half-life at 2 μM [1],microsomal CLint at 2 μM [1],half-life at 1 μM [2],microsomal CLint at 1 μM [2],Ki [3],half-life at 1 μM [4],microsomal CLint at 1 μM [4],half-life at 1 μM [5],microsomal CLint at 1 μM [5],Ki [6],inhibition at 10 µM [7],inhibition at 10 µM [8],inhibition at 10 µM [9],inhibition at 10 µM [10],half-life at 1 μM [11],microsomal CLint at 1 μM [11],half-life at 1 μM [12],microsomal CLint at 1 μM [12],half-life at 1 μM [13],microsomal CLint at 1 μM [13]
"NC1(c2ccccc2)CCCCC1=O (racemic) [Compound 11rac, 2-amino-2-phenyl-cyclohexan-1-one]",13.4 h,2 µL/min/mg,8.9 h,1 µL/min/mg,1.4 µM,–,–,–,–,–,–,–,–,–,–,–,–,–,–,–
CNC1(c2cccc(OC)c2)CCCCC1=O (racemic) [Compound 3rac],1.46 h,19 µL/min/mg,2.5 h,5 µL/min/mg,0.99 µM,–,–,–,–,–,–,–,–,–,–,–,–,–,–,–
"CN[C@@]1(c2cccc(F)c2)CCCCC1=O [Compound 19R, (R)-2-(3-fluorophenyl)-2-(methylamino)cyclohexan-1-one]",–,–,2.27 h,5 µL/min/mg,–,0.998 h,12 µL/min/mg,0.195 h,59 µL/min/mg,6.8 µM,20.9%,8.8%,-10.7%,11%,–,–,–,–,–,–
"COCCN[C@]1(c2ccccc2)CCCCC1=O [Compound 29S, (5)-2-((2-methoxyethyl)amino)-2-phenylcyclohexan-1-one]",–,–,–,–,–,–,–,–,–,8.2 µM,-12.9%,4%,13.7%,-10.5%,> 2.42 h,< 9.6 µL/min/mg,0.595 h,35.8 µL/min/mg,0.53 h,43.6 µL/min/mg

# From patent US11344510B2, “Arylcyclohexylamine derivatives and their use in the treatment of psychiatric disorders” (Gilgamesh Pharmaceuticals, Inc., priority 2019, dated 2022)
